# Experimental data published in the supplement of paper PMC10307832.
# Key:
# Assay in all cases: relative viability (nuclei count vs DMSO), 5 days (fraction); higher = more cells survive
# [1] = compound: CCn1c(-c2nonc2N)nc2c(C#CC(C)(C)O)ncc(OC[C@H]3CCCNC3)c21 + Cc1nc(Nc2ncc(C(=O)Nc3c(C)cccc3Cl)s2)cc(N2CCN(CCO)CC2)n1 [Dasatinib] (partner 0.075 µM)
# How it was run: (§1)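 Values are medians from duplicate plates. Each reflects relative viability, defined as the nuclei count of treated wells over that of vehicle wells. Lung cancer cell lines in 1536-well plates were pin-tool dosed one day after seeding with one drug alone or with a fixed anchor-drug dose plus five library-drug doses (not always all listed) in √10 steps, then fixed, stained and imaged at 4× after 5 days.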
# [2] = compound: CCn1c(-c2nonc2N)nc2c(C#CC(C)(C)O)ncc(OC[C@H]3CCCNC3)c21 + NC(=O)Nc1cc(-c2cccc(F)c2)sc1C(=O)N[C@H]1CCCNC1 [AZD7762] (partner 0.2 µM)
# How it was run: as §1
# [3] = compound: CCn1c(-c2nonc2N)nc2c(C#CC(C)(C)O)ncc(OC[C@H]3CCCNC3)c21 + CC1(C)CCC(c2ccc(Cl)cc2)=C(CN2CCN(c3ccc(C(=O)NS(=O)(=O)c4ccc(N[C@H](CCN5CCOCC5)CSc5ccccc5)c(S(=O)(=O)C(F)(F)F)c4)cc3)CC2)C1 [Navitoclax] (partner 0.5 µM)
# How it was run: as §1
# [4] = compound: CCn1c(-c2nonc2N)nc2c(C#CC(C)(C)O)ncc(OC[C@H]3CCCNC3)c21 + CCNC(=O)c1noc(-c2cc(C(C)C)c(O)cc2O)c1-c1ccc(CN2CCOCC2)cc1 [Luminespib] (partner 0.01 µM)
# How it was run: as §1
Cell Line,relative viability ([1]; first compound 0.01 µM),relative viability ([1]; first compound 0.03162 µM),relative viability ([1]; first compound 0.1 µM),relative viability ([1]; first compound 0.3162 µM),relative viability ([1]; first compound 1 µM),relative viability ([2]; first compound 0.01 µM),relative viability ([2]; first compound 0.03162 µM),relative viability ([2]; first compound 0.1 µM),relative viability ([2]; first compound 0.3162 µM),relative viability ([2]; first compound 1 µM),relative viability ([3]; first compound 0.01 µM),relative viability ([3]; first compound 0.03162 µM),relative viability ([3]; first compound 0.1 µM),relative viability ([3]; first compound 0.3162 µM),relative viability ([3]; first compound 1 µM),relative viability ([4]; first compound 0.01 µM),relative viability ([4]; first compound 0.03162 µM),relative viability ([4]; first compound 0.1 µM),relative viability ([4]; first compound 0.3162 µM),relative viability ([4]; first compound 1 µM)
HCC-366,0.597,0.6,0.602,0.593,0.606,0.332,0.239,0.287,0.273,0.241,0.967,1.1,1.01,1.06,1.02,,,,,
HCC-827,0.242,0.34,0.296,0.354,0.335,0.233,0.256,0.273,0.199,0.196,1.03,0.985,1.06,1.03,1.04,0.533,0.895,0.729,0.476,0.633
HOP-62,0.64,0.587,0.66,0.659,0.607,0.761,0.677,0.732,0.577,0.516,0.997,0.942,1.04,0.951,1.05,0.903,0.878,0.913,0.876,0.967
IA-LM,,,,,,,,,,,0.76,0.66,0.929,0.576,0.313,,,,,
LCLC-103H,0.381,0.451,0.445,0.444,0.433,0.752,0.862,0.743,0.668,0.696,,,,,,0.936,0.912,0.94,0.735,0.863
NCI-H358,0.196,0.19,0.169,0.135,0.183,0.478,0.386,0.684,0.518,0.512,,,,,,0.375,0.403,0.279,0.257,0.419
NCI-H520,0.223,0.2,0.181,0.159,0.134,,,,,,1.05,1.11,1.05,0.934,0.797,0.188,0.222,0.188,0.238,0.182
NCI-H522,0.796,0.949,0.845,0.718,0.998,0.726,0.763,0.838,0.686,0.772,,,,,,0.929,1.19,1.14,0.604,1.2
NCI-H650,0.44,0.392,0.453,0.457,0.448,0.948,1.05,0.998,0.878,1.08,,,,,,0.736,0.835,0.814,0.791,0.818
NCI-H661,0.996,0.86,0.9,0.751,0.764,,,,,,,,,,,0.89,0.95,0.947,0.965,0.995
NCI-H1299,,,,,,,,,,,1.04,1.06,1.02,1.03,1.08,,,,,
NCI-H1563,0.449,0.437,0.441,0.511,0.446,,,,,,,,,,,0.466,0.641,0.5,0.463,0.505
NCI-H1623,0.567,0.482,0.548,0.438,0.453,,,,,,,,,,,0.443,0.639,0.486,0.425,0.472
NCI-H1648,,,,,,0.601,0.728,0.615,0.686,0.673,,,,,,,,,,
NCI-H1650,0.338,0.302,0.297,0.266,0.25,,,,,,1.2,1.04,1.03,0.894,1.13,0.187,0.202,0.182,0.199,0.206
NCI-H1703,,,,,,,0.123,,0.0983,0.113,1.12,0.959,0.857,1.04,0.505,,,,,
NCI-H2009,0.257,0.33,0.287,0.254,0.283,,,,,,1.17,1.17,1.2,1.12,1.11,1.07,0.981,1.06,0.986,0.983
NCI-H2023,0.454,0.572,0.492,0.388,0.344,,,,,,1.02,0.98,0.972,0.932,1.01,0.636,0.981,0.664,0.67,0.498
NCI-H2228,0.451,0.526,0.583,0.482,0.353,,,,,,0.728,0.673,0.791,0.634,0.787,0.0991,0.159,0.145,0.113,0.123
NCI-H2342,0.286,0.304,0.32,0.317,0.33,0.444,0.482,0.498,0.534,0.455,,,,,,0.91,0.678,0.67,0.625,0.757
SK-LU-1,0.191,0.161,0.199,0.188,0.158,,,,,,0.89,0.936,0.99,0.921,0.761,0.22,0.2,0.211,0.22,0.215
SK-MES-1,0.359,0.386,0.446,0.447,0.373,,,,,,1.22,1.22,1.18,1.22,1.2,0.907,0.904,0.674,0.712,0.743
SW 900,0.731,0.527,0.566,0.544,0.538,0.656,0.659,0.712,0.575,0.56,,,,,,0.189,0.185,0.18,0.16,0.162
SW 1573,0.377,0.561,0.431,0.455,0.354,,,,,,0.895,0.859,0.934,0.943,0.735,0.215,0.563,0.178,0.584,0.342
